Measurements as given in the NIST ThermoML archive (doi:10.1016/j.jct.2013.07.003).

Legend:
[1] = relative permittivity at various frequencies (dimensionless); xn = mol fraction of the nth substance listed; settings: 101 kPa, Liquid, Frequency=0.1 MHz, Coaxial cylinder capacitor
[2] = refractive index (Na D-line) (dimensionless); xn = mol fraction of the nth substance listed; settings: 101 kPa, Liquid, Standard Abbe refractometry

CC(O)CCO (stereo not given) [1,3-butanediol] + CCCCCCCCO
Settings	refractive index, 298.2 K	refractive index, 303.2 K	refractive index, 308.2 K	refractive index, 313.2 K	refractive index, 318.2 K	relative permittivity, 298.2 K	relative permittivity, 303.2 K	relative permittivity, 308.2 K	relative permittivity, 313.2 K	relative permittivity, 318.2 K
[1], x1 = 0.105	–	–	–	–	–	10.43	9.99	9.56	9.1	8.74
[1], x1 = 0.2	–	–	–	–	–	11.24	10.8	10.32	9.91	9.5
[1], x1 = 0.301	–	–	–	–	–	12.31	11.86	11.36	10.95	10.54
[1], x1 = 0.401	–	–	–	–	–	13.6	13.15	12.62	12.19	11.76
[1], x1 = 0.45	–	–	–	–	–	14.39	13.92	13.39	12.94	12.49
[1], x1 = 0.501	–	–	–	–	–	15.23	14.73	14.21	13.75	13.27
[1], x1 = 0.55	–	–	–	–	–	16.1	15.6	15.04	14.53	14.06
[1], x1 = 0.6	–	–	–	–	–	17.05	16.52	15.93	15.42	14.92
[1], x1 = 0.66	–	–	–	–	–	18.34	17.77	17.13	16.57	16.07
[1], x1 = 0.7	–	–	–	–	–	19.31	18.77	18.02	17.46	16.91
[1], x1 = 0.801	–	–	–	–	–	21.99	21.34	20.58	20.02	19.37
[1], x1 = 0.9	–	–	–	–	–	25.05	24.33	23.43	22.79	22.1
[1], x1 = 0.95	–	–	–	–	–	26.73	25.9	25.07	24.31	23.62
[1], x1 = 1	–	–	–	–	–	28.52	27.66	26.77	25.98	25.22
[2], x1 = 0.105	1.4279	1.4257	1.4233	1.4209	1.4189	–	–	–	–	–
[2], x1 = 0.2	1.4283	1.4261	1.4238	1.4215	1.4195	–	–	–	–	–
[2], x1 = 0.301	1.4288	1.4268	1.4245	1.4223	1.4204	–	–	–	–	–
[2], x1 = 0.401	1.4295	1.4275	1.4253	1.4232	1.4213	–	–	–	–	–
[2], x1 = 0.45	1.43	1.4281	1.4259	1.4239	1.4221	–	–	–	–	–
[2], x1 = 0.501	1.4305	1.4286	1.4265	1.4245	1.4227	–	–	–	–	–
[2], x1 = 0.55	1.4311	1.4292	1.4272	1.4253	1.4236	–	–	–	–	–
[2], x1 = 0.6	1.4316	1.4298	1.4278	1.426	1.4245	–	–	–	–	–
[2], x1 = 0.66	1.4325	1.4307	1.4288	1.427	1.4255	–	–	–	–	–
[2], x1 = 0.7	1.4331	1.4314	1.4295	1.4278	1.4262	–	–	–	–	–
[2], x1 = 0.801	1.4347	1.4331	1.4313	1.4298	1.4283	–	–	–	–	–
[2], x1 = 0.9	1.4364	1.4349	1.4332	1.4318	1.4304	–	–	–	–	–
[2], x1 = 0.95	1.4373	1.4359	1.4343	1.4329	1.4315	–	–	–	–	–
[2], x1 = 1	1.4384	1.4371	1.4356	1.4341	1.4328	–	–	–	–	–
